The record followed here is US6911446B2, “Methods of modulating serine/threonine protein kinase function with quinazoline-based compounds” (Sugen, Inc., priority 1997, dated 2005).

In experiment [1] the target is T1, RAF-1 (Homo sapiens, UniProt P04049).
T1 construct: made in house; host or cells: Sf9 (Spodoptera frugiperda) cells co-infected with RAS and RAF recombinant baculoviruses
As to the kind of experiment: RAF-1 ELISA phosphorylation assay (RAF-catalyzed phosphorylation of MEK and MAPK). Conditions: RAF-1 phosphorylation assay, lysates from RAS/RAF infected Sf9 cells, substrates T-MEK and His-MAPK. It is filed as biochemical. An excerpt:
The following assay reports the amount of RAF-catalyzed phosphorylation of its target protein MEK as well as MEK's target MAPK. The RAF gene sequence is described in Bonner et al., 1985, Molec. Cell. Biol. 5: 1400-1407, and is readily accessible in multiple gene sequence data banks. Construction of the nucleic acid vector and cell lines utilized for this portion of the invention are fully described in Morrison et al., 1988, Proc. Natl. Acad. Sci. USA 85: 8855-8859.
• 1. Sf9 (Spodoptera frugiperda) cells; GIBCO-BRL, Gaithersburg, Md. • 2. RIPA buffer: 20 mM Tris/HCl pH 7.4, 137 mM NaCl, 10% glycerol, 1 mM PMSF, 5 mg/L Aprotenin, 0.5% Triton X-100; • 3. Thioredoxin-MEK fusion protein (T-MEK): T-MEK expression and purification by affinity chromatography were performed according to the manufacturer's procedures. Catalog#K 350-01 and R 350-40, Invitrogen Corp., San Diego, Calif. • 4. His-MAPK (ERK 2); His-tagged MAPK was expressed in XL1 Blue cells transformed with pUC18 vector encoding His-MAPK. His-MAPK was purified by Ni-affinity chromatography. Cat#27-4949-01, Pharmacia, Alameda, Calif., as described herein. • 5. Sheep anti mouse IgG: Jackson laboratories, West Grove, Pa. Catalog, #515-006-008, Lot#28563 • 6. RAF-1 protein kinase specific antibody: URP2653 from UBI. • 7. Coating buffer: PBS; phosphate buffered saline, GIBCO-BRL, Gaithersburg, Md. • 8. Wash buffer: TBST-50 mM Tris/HCL pH 7.2, 150 mM NaCl, 0.1% Triton X-100 • 9. Block buffer: TBST, 0.1% ethanolamine pH 7.4 • 10. DMSO, Sigma, St. Louis, Mo. • 11. Kinase buffer (KB): 20 mM Hepes/HC1 pH 7.2, 150 mM NaCl, 0.1% Triton X-100, 1 mM PMSF, 5 mg/L Aprotenin, 75 μM sodium ortho vanadate, 0.5 MM DTT and 10 mM MgCl2. • 12. ATP mix: 100 mM MgCl2, 300 μM ATP, 10 μCi γ-^33P ATP (Dupont-NEN)/mL. • 13 Stop solution: 1% phosphoric acid; Fisher, Pittsburgh, Pa. • 14. Wallac Cellulose Phosphate Filter mats; Wallac, Turku, Finnland. • 15. Filter wash solution: 1% phosphoric acid, Fisher, Pittsburgh, Pa. • 16. Tomtec plate harvester, Wallac, Turku, Finnland. • 17. Wallac beta plate reader #1205, Wallac, Turku, Finnland. • 18. NUNC 96-well V bottom polypropylene plates for compounds Applied Scientific Catalog #AS-72092. Procedure
All of the following steps were conducted at room temperature unless specifically indicated. • 1. ELISA plate coating: ELISA wells are coated with 100 μL of Sheep anti mouse affinity purified antiserum (1 μg/100 μL coating buffer) over night at 4° C. ELISA plates can be used for two weeks when stored at 4° C. • 2. Invert the plate and remove liquid. Add 100 μL of blocking solution and incubate for 30 min. • 3. Remove blocking solution and wash four times with wash buffer. Pat the plate on a paper towel to remove excess liquid. • 4. Add 1 μg of antibody specific for RAF-1 to each well and incubate for 1 hour. Wash as described in step 3. • 5. Thaw lysates from RAS/RAF infected Sf9 cells and dilute with TBST to 10 μg/100 μL. Add 10 μg of diluted lysate to the wells and incubate for 1 hour. Shake the plate during incubation. Negative controls receive no lysate. Lysates from RAS/RAF infected Sf9 insect cells are prepared after cells are infected with recombinant baculoviruses at a MOI of 5 for each virus, and harvested 48 hours later. The cells are washed once with PBS and lysed in RIPA buffer. Insoluble material is removed by centrifugation (5 min at 10,000×g). Aliquots of lysates are frozen in dry ice/ethanol and stored at −80° C. until use. • 6. Remove non-bound material and wash as outlined above (step 3). • 7. Add 2 μg of T-MEK and 2 μg of His-MAEPK per well and adjust the volume to 40 μL with kinase buffer. Methods for purifying T-MEK and MAPK from cell extracts are provided herein by example. • 8. Predilute compounds (stock solution 10 mg/mL DMSO) or extracts 20 fold in TBST plus 1% DMSO. Add 5 μL of the prediluted compounds/extracts to the wells described in step 6. Incubate for 20 min. Controls receive no drug. • 9. […]

The target of experiment [2] is T2, EGF Receptor (Homo sapiens, UniProt P00533).
T2 construct: expressed in transfected cells; host or cells: NIH3T3 (EGFR-NIH3T3)
As to the kind of experiment: EGF Receptor kinase activity in whole cells (EGFR-NIH3T3 assay, EGFR ELISA). The class given is cell-based. Conditions: Table 5, EGFR ELISA assay in whole cells (EGFR-NIH3T3); read-out: IC50 A549. As for the experimental part:
EGF Receptor kinase activity (EGFR-NIH3T3 assay) in whole cells was measured as described in detail in PCT Publication WO9640116, filed Jun. 5, 1996, by Tang et al., and entitled “Indolinone Compounds for the Treatment of Disease,” incorporated herein by reference in its entirety, including any drawings.

The test system of experiment [3] is NIH-3T3 cells expressing RAF-1. The experiment is described as follows: Growth of NIH-3T3 cells expressing RAF-1. It is filed as cell-based. Conditions: Mus musculus, NIH3T3; growth of NIH-3T3 cells overexpressing RAF. The source says: The following assay measures growth rates for NIH-3T3 cells expressing RAF-1. The protocol for the assay is described in detail in PCT Publication WO9640116, filed Jun. 5, 1996, by Tang et al., and entitled “Indolinone Compounds for the Treatment of Disease,” incorporated herein by reference in its entirety, including any drawings.

T1 sequence (P04049 whole entry): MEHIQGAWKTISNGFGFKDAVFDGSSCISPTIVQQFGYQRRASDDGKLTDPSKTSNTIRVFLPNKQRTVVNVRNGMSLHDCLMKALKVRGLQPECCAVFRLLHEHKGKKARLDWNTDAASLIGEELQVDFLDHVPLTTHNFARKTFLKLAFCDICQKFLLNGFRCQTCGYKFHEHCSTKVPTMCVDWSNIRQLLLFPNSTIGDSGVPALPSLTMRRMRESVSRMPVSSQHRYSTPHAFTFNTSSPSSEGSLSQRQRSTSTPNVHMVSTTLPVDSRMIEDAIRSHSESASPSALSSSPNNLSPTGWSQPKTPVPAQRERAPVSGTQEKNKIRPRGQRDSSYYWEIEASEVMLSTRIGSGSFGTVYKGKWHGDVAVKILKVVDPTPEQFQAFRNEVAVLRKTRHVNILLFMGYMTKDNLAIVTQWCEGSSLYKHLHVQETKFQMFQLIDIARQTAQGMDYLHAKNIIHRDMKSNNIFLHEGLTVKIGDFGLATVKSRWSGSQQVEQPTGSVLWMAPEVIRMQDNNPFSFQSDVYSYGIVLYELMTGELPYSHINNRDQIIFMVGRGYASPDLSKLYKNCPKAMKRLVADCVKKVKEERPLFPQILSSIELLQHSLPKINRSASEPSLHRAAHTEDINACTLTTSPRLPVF
T2 sequence (P00533 25-1210): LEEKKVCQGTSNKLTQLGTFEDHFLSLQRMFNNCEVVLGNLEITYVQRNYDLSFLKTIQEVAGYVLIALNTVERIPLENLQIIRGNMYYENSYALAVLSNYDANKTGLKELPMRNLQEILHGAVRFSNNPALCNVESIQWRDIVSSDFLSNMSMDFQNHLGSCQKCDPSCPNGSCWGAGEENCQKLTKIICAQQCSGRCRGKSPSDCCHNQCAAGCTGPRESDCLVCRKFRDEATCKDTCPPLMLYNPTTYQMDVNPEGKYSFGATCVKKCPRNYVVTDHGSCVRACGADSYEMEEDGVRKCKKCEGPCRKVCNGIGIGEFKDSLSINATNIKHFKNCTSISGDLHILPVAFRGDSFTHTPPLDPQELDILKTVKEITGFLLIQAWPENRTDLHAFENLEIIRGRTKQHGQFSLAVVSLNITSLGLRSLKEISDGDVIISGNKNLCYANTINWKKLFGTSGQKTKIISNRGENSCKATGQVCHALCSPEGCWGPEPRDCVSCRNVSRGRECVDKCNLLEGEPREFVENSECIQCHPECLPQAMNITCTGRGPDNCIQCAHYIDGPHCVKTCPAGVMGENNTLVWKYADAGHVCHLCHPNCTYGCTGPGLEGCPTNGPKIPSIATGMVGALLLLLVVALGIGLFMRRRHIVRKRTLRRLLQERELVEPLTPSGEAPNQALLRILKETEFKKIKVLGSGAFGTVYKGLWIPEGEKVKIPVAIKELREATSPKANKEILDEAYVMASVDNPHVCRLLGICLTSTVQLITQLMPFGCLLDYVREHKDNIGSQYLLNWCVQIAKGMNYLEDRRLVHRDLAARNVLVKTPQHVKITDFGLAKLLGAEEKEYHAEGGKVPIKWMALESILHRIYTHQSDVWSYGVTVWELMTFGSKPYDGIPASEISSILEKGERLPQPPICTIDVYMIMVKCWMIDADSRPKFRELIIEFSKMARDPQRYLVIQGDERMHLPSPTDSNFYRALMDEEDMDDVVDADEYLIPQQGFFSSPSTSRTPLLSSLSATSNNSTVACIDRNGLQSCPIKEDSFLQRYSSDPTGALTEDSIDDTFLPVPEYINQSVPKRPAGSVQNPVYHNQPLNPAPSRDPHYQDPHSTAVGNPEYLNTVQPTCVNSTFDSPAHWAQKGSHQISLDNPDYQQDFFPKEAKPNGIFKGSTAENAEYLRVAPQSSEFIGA

As to `COc1cccc(Oc2cccc3nc(N)nc(N)c23)c1` [Compound A-23, 2,4-Diamino-5-(3-methoxyphenoxy)quinazoline], the results for the IC50 in experiment [1] and in experiment [2] were 6.4 µM and 17.2 µM, respectively.
Take `Cc1ccc(Oc2cccc3nc(N)nc(N)c23)cc1` [Compound A-9, 2,4-Diamino-5-(4-methylphenoxy)quinazoline]: the figures for the IC50 in experiment [1] and in experiment [3] were 4.5 µM and 5.9 µM, respectively.
Consider `COc1ccc(Oc2cccc3nc(N)nc(N)c23)cc1` [Compound A-6, 2,4-Diamino-5-(4-methoxyphenoxy)quinazoline], for which the figures for the IC50 in experiment [1] and in experiment [2] were 0.8 µM and greater than 100 µM, respectively.
As to `Nc1nc(N)c2c(Oc3ccc(F)cc3)cccc2n1` [Compound A-7, 2,4-Diamino-5-(4-fluorophenoxy)quinazoline], the IC50 in experiment [1] was 5.8 µM; in experiment [3], 1.7 µM; in experiment [2], greater than 100 µM.
For `Nc1ncnc2cccc(Oc3ccc(OCc4ccccc4)cc3)c12` [Compound A-28, 4-Amino-5-(4-benzyloxyphenoxy)quinazoline], the figures for the IC50 in experiment [1] and in experiment [2] were 0.3 µM and 75.1 µM, respectively.
Regarding `Nc1nc(N)c2c(Oc3ccccc3)cccc2n1` [Compound A-1, 2,4-Diamino-5-phenoxyquinazoline], the figures for the IC50 in experiment [1], in experiment [3] and in experiment [2] were 0.3 µM, 0.16 µM and 24.6 µM, respectively.
With `CC(C)(C)c1ccc(Oc2cccc3nc(N)nc(N)c23)cc1` [Compound A-8, 2,4-Diamino-5-(4-tert-butylphenoxy)quinazoline], the IC50 in experiment [1] was greater than 100 µM.
With `COc1ccccc1Oc1cccc2nc(N)nc(N)c12` [Compound A-22, 2,4-Diamino-5-(2-methoxyphenoxy)quinazoline], the IC50 was 20 µM in experiment [1] and greater than 100 µM in experiment [2].
